Results as given in ChEMBL document CHEMBL1201862, “PubChem BioAssay data set” (2004).
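1) Cells in 96-well plates. 2) Compound, 48 h, 5 concentrations. 3) Linear interpolation between surrounding doses. 4) Unreached endpoint = highest concentration. GI50 = concentration required for 50% inhibition of growth.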 Active and inactive are the calls of the source. Rule as the data show it: active = GI50 up to about 1.1 µM and inactive = higher.

What was measured:
Test in all cases: inhibition of tumour cell growth, NCI panel, 48 h
786-0 = test system: 786-0
A498 = test system: A498
A549 = test system: A549
ACHN = test system: ACHN
CAKI-1 = test system: CAKI-1
CCRF-CEM = test system: CCRF-CEM
COLO 205 = test system: COLO 205
DMS-114 = test system: DMS-114
DMS-273 = test system: DMS-273
EKVX = test system: EKVX
HCC 2998 = test system: HCC 2998
HCT-116 = test system: HCT-116
HCT-15 = test system: HCT-15
HL-60 = test system: HL-60
HOP-18 = test system: HOP-18
HOP-62 = test system: HOP-62
HT-29 = test system: HT-29
IGROV-1 = test system: IGROV-1
K562 = test system: K562
KM-20L2 = test system: KM-20L2
KM12 = test system: KM12
LOX IMVI = test system: LOX IMVI
LXFL 529 = test system: LXFL 529
M14 = test system: M14
MOLT-4 = test system: MOLT-4
Malme-3M = test system: Malme-3M
NCI-H226 = test system: NCI-H226
NCI-H23 = test system: NCI-H23
NCI-H460 = test system: NCI-H460
NCI-H522 = test system: NCI-H522
OVCAR-3 = test system: OVCAR-3
OVCAR-4 = test system: OVCAR-4
OVCAR-5 = test system: OVCAR-5
OVCAR-8 = test system: OVCAR-8
RPMI-8226 = test system: RPMI-8226
RXF 393 = test system: RXF 393
RXF 631 = test system: RXF 631
SF-268 = test system: SF-268
SF-295 = test system: SF-295
SF-539 = test system: SF-539
SK-MEL-2 = test system: SK-MEL-2
SK-MEL-5 = test system: SK-MEL-5
SK-OV-3 = test system: SK-OV-3
SN12C = test system: SN12C
SNB-19 = test system: SNB-19
SNB-75 = test system: SNB-75
SNB-78 = test system: SNB-78
SW-620 = test system: SW-620
TK-10 = test system: TK-10
U-251 = test system: U-251
UACC-257 = test system: UACC-257
UACC-62 = test system: UACC-62
UO-31 = test system: UO-31
HOP-92 = test system: HOP-92
M19-MEL = test system: M19-MEL
SK-MEL-28 = test system: SK-MEL-28
SR = test system: SR

Compound: CC1(C)C2CCC13C(=O)C1OC3(C2)C2C(=O)N(c3ccccc3)C(=O)C12 (configuration not stated)
- GI50 (786-0): > 100 µM (inactive)
- GI50 (A498): > 100 µM (inactive)
- GI50 (A549): > 100 µM (inactive)
- GI50 (ACHN): > 100 µM (inactive)
- GI50 (CAKI-1): > 100 µM (inactive)
- GI50 (CCRF-CEM): > 100 µM (inactive)
- GI50 (COLO 205): > 100 µM (inactive)
- GI50 (DMS-114): > 100 µM (inactive)
- GI50 (DMS-273): > 100 µM (inactive)
- GI50 (EKVX): > 100 µM (inactive)
- GI50 (HCC 2998): > 100 µM (inactive)
- GI50 (HCT-116): > 100 µM (inactive)
- GI50 (HCT-15): > 100 µM
- GI50 (HL-60): > 100 µM (inactive)
- GI50 (HOP-18): > 100 µM (inactive)
- GI50 (HOP-62): > 100 µM (inactive)
- GI50 (HT-29): 51.4 µM (inactive)
- GI50 (IGROV-1): > 100 µM (inactive)
- GI50 (K562): > 100 µM (inactive)
- GI50 (KM-20L2): > 100 µM (inactive)
- GI50 (KM12): > 100 µM (inactive)
- GI50 (LOX IMVI): > 100 µM (inactive)
- GI50 (LXFL 529): > 100 µM (inactive)
- GI50 (M14): > 100 µM (inactive)
- GI50 (MOLT-4): > 100 µM (inactive)
- GI50 (Malme-3M): > 100 µM (inactive)
- GI50 (NCI-H226): > 100 µM (inactive)
- GI50 (NCI-H23): 38.1 µM (inactive)
- GI50 (NCI-H460): > 100 µM (inactive)
- GI50 (NCI-H522): 20.1 µM (inactive)
- GI50 (OVCAR-3): > 100 µM (inactive)
- GI50 (OVCAR-4): > 100 µM (inactive)
- GI50 (OVCAR-5): > 100 µM (inactive)
- GI50 (OVCAR-8): > 100 µM (inactive)
- GI50 (RPMI-8226): > 100 µM (inactive)
- GI50 (RXF 393): > 100 µM (inactive)
- GI50 (RXF 631): > 100 µM (inactive)
- GI50 (SF-268): > 100 µM (inactive)
- GI50 (SF-295): > 100 µM (inactive)
- GI50 (SF-539): > 100 µM (inactive)
- GI50 (SK-MEL-2): > 100 µM (inactive)
- GI50 (SK-MEL-5): > 100 µM (inactive)
- GI50 (SK-OV-3): > 100 µM (inactive)
- GI50 (SN12C): > 100 µM (inactive)
- GI50 (SNB-19): > 100 µM (inactive)
- GI50 (SNB-75): > 100 µM (inactive)
- GI50 (SNB-78): > 100 µM (inactive)
- GI50 (SW-620): > 100 µM (inactive)
- GI50 (TK-10): > 100 µM (inactive)
- GI50 (U-251): > 100 µM (inactive)
- GI50 (UACC-257): > 100 µM (inactive)
- GI50 (UACC-62): > 100 µM (inactive)
- GI50 (UO-31): > 100 µM (inactive)

Compound: c1ccc(-c2nc3sccn3n2)cc1
- GI50 (A498): > 100 µM (inactive)
- GI50 (A549): > 100 µM (inactive)
- GI50 (ACHN): > 100 µM (inactive)
- GI50 (CCRF-CEM): > 100 µM (inactive)
- GI50 (DMS-114): > 100 µM (inactive)
- GI50 (DMS-273): > 100 µM (inactive)
- GI50 (EKVX): > 100 µM (inactive)
- GI50 (HCT-116): > 100 µM (inactive)
- GI50 (HL-60): > 100 µM (inactive)
- GI50 (HOP-62): > 100 µM (inactive)
- GI50 (HOP-92): 74.3 µM (inactive)
- GI50 (HT-29): > 100 µM (inactive)
- GI50 (IGROV-1): > 100 µM (inactive)
- GI50 (K562): > 100 µM (inactive)
- GI50 (KM12): > 100 µM (inactive)
- GI50 (M14): > 100 µM (inactive)
- GI50 (M19-MEL): > 100 µM (inactive)
- GI50 (MOLT-4): > 100 µM (inactive)
- GI50 (NCI-H23): > 100 µM (inactive)
- GI50 (NCI-H460): > 100 µM (inactive)
- GI50 (NCI-H522): > 100 µM (inactive)
- GI50 (OVCAR-5): > 100 µM (inactive)
- GI50 (OVCAR-8): > 100 µM (inactive)
- GI50 (RXF 393): > 100 µM (inactive)
- GI50 (RXF 631): > 100 µM (inactive)
- GI50 (SF-268): > 100 µM (inactive)
- GI50 (SF-295): > 100 µM (inactive)
- GI50 (SK-MEL-28): > 100 µM (inactive)
- GI50 (SK-OV-3): > 100 µM (inactive)
- GI50 (SNB-19): > 100 µM (inactive)
- GI50 (SR): > 100 µM (inactive)
- GI50 (TK-10): > 100 µM (inactive)
- GI50 (U-251): > 100 µM (inactive)
- GI50 (UACC-257): > 100 µM (inactive)
- GI50 (UACC-62): > 100 µM (inactive)
- GI50 (UO-31): > 100 µM (inactive)

Compound: COc1cc2nc(NCCCCCNC(=O)c3ccco3)nc(N)c2cc1OC
- GI50 (786-0): 21.5 µM (inactive)
- GI50 (A498): 80.2 µM (inactive)
- GI50 (A549): 74.8 µM (inactive)
- GI50 (ACHN): 52.5 µM (inactive)
- GI50 (CAKI-1): 42.6 µM (inactive)
- GI50 (CCRF-CEM): 28.5 µM (inactive)
- GI50 (COLO 205): 18.2 µM (inactive)
- GI50 (DMS-114): 19.9 µM (inactive)
- GI50 (DMS-273): 49.9 µM (inactive)
- GI50 (EKVX): > 100 µM (inactive)
- GI50 (HCC 2998): 19.4 µM (inactive)
- GI50 (HCT-15): > 100 µM
- GI50 (HL-60): 21.4 µM (inactive)
- GI50 (HOP-18): > 100 µM (inactive)
- GI50 (HOP-62): 24.2 µM (inactive)
- GI50 (HOP-92): 12.2 µM (inactive)
- GI50 (HT-29): 33.9 µM (inactive)
- GI50 (IGROV-1): 41.1 µM (inactive)
- GI50 (K562): 29.1 µM (inactive)
- GI50 (KM-20L2): 32.4 µM (inactive)
- GI50 (KM12): 24 µM (inactive)
- GI50 (M14): 18.5 µM (inactive)
- GI50 (M19-MEL): 23 µM (inactive)
- GI50 (MOLT-4): 24.8 µM (inactive)
- GI50 (Malme-3M): 17.4 µM (inactive)
- GI50 (NCI-H226): 32.7 µM (inactive)
- GI50 (NCI-H23): 87.7 µM (inactive)
- GI50 (NCI-H460): 32 µM (inactive)
- GI50 (NCI-H522): 25.4 µM (inactive)
- GI50 (OVCAR-3): 24.7 µM (inactive)
- GI50 (OVCAR-4): 29.3 µM (inactive)
- GI50 (OVCAR-5): 38.3 µM (inactive)
- GI50 (OVCAR-8): 33.7 µM (inactive)
- GI50 (RPMI-8226): 38 µM (inactive)
- GI50 (RXF 393): 27.6 µM (inactive)
- GI50 (RXF 631): 26.1 µM (inactive)
- GI50 (SF-268): 36.2 µM (inactive)
- GI50 (SF-295): 37.2 µM (inactive)
- GI50 (SF-539): 19.6 µM (inactive)
- GI50 (SK-MEL-28): 19.2 µM (inactive)
- GI50 (SK-MEL-2): 19.7 µM (inactive)
- GI50 (SK-MEL-5): 19.2 µM (inactive)
- GI50 (SK-OV-3): 32.4 µM (inactive)
- GI50 (SN12C): 39.8 µM (inactive)
- GI50 (SNB-19): 38.2 µM (inactive)
- GI50 (SNB-75): 22.6 µM (inactive)
- GI50 (SNB-78): 28.2 µM (inactive)
- GI50 (SW-620): 22.5 µM (inactive)
- GI50 (TK-10): 53.1 µM (inactive)
- GI50 (U-251): 20.5 µM (inactive)
- GI50 (UACC-257): 19.5 µM (inactive)
- GI50 (UACC-62): 22.2 µM (inactive)
- GI50 (UO-31): > 100 µM (inactive)
